Measurements reported in ChEMBL document CHEMBL1153906 (Bioorg Med Chem, 2009).
pKi: −log10 of the molar value.

What was measured:
[1] = Selectivity ratio of Ki for human carbonic anhydrase 2 to Ki for Caenorhabditis elegans carbonic anhydrase 4b
[2] = Inhibition of Caenorhabditis elegans carbonic anhydrase 4b by CO2 hydration assay

Q: Which Ratio Ki [1] does the source give for NNC(=O)c1[nH]c2ccc(S(N)(=O)=O)cc2c1-c1c(F)c(F)c(F)c(F)c1F here?
A: The Ratio Ki was 0.02.

Q: And the pKi [2]?
A: Its pKi is 6.59.

Q: With COc1cccc(-c2c(C(=O)NN)[nH]c3ccc(S(N)(=O)=O)cc23)c1 as the molecule, how does the Ratio Ki [1] read?
A: The Ratio Ki was 0.02.

Q: And the pKi [2]?
A: The pKi was 6.48.

Q: Which Ratio Ki [1] does the source give for NNC(=O)c1[nH]c2ccc(S(N)(=O)=O)cc2c1-c1ccc(Cl)cc1 here?
A: Its Ratio Ki is 1.78.

Q: And the pKi [2]?
A: The pKi was 8.19.

Q: What does the source list for Cc1cccc(-c2c(C(=O)NN)[nH]c3ccc(S(N)(=O)=O)cc23)c1?
A: Ratio Ki [1]: 3.63; pKi [2]: 7.88

Q: Which results are given for NNC(=O)c1[nH]c2ccc(S(N)(=O)=O)cc2c1-c1ccc(F)cc1?
A: Ratio Ki [1]: 2.58; pKi [2]: 8.22

Q: What does the source list for NNC(=O)c1[nH]c2ccc(S(N)(=O)=O)cc2c1-c1cccc(F)c1?
A: Ratio Ki [1]: 0.86; pKi [2]: 8.00

Q: Which results are given for Cc1ccc(-c2c(C(=O)NN)[nH]c3ccc(S(N)(=O)=O)cc23)cc1?
A: Ratio Ki [1]: 4.95; pKi [2]: 7.91

Q: Which Ratio Ki [1] does the source give for NNC(=O)c1[nH]c2ccc(S(N)(=O)=O)cc2c1-c1ccccc1F here?
A: Its Ratio Ki is 2.88.

Q: And the pKi [2]?
A: The pKi was 7.90.

Q: For NNC(=O)c1[nH]c2ccc(S(N)(=O)=O)cc2c1-c1ccccc1Br, which Ratio Ki [1] is on record?
A: Its Ratio Ki is 0.18.

Q: What about the pKi [2] of the same molecule?
A: Its pKi is 6.59.

Q: What does the source list for NNC(=O)c1[nH]c2ccc(S(N)(=O)=O)cc2c1-c1ccc(Br)cc1?
A: Ratio Ki [1]: 3.54; pKi [2]: 7.94

Q: Which Ratio Ki [1] does the source give for NNC(=O)c1[nH]c2ccc(S(N)(=O)=O)cc2c1-c1cccc(Cl)c1 here?
A: Its Ratio Ki is 0.91.

Q: What about the pKi [2] of the same molecule?
A: The pKi was 8.00.

Q: For NNC(=O)c1[nH]c2ccc(S(N)(=O)=O)cc2c1-c1cccc(Br)c1, which Ratio Ki [1] is on record?
A: The Ratio Ki was 4.03.

Q: What about the pKi [2] of the same molecule?
A: The pKi was 7.87.

Q: For Cc1ccccc1-c1c(C(=O)NN)[nH]c2ccc(S(N)(=O)=O)cc12, which Ratio Ki [1] is on record?
A: The Ratio Ki was 0.03.

Q: And the pKi [2]?
A: Its pKi is 6.49.

Q: With NNC(=O)c1[nH]c2ccc(S(N)(=O)=O)cc2c1-c1ccccc1Cl as the molecule, how does the Ratio Ki [1] read?
A: Its Ratio Ki is 0.1.

Q: And the pKi [2]?
A: Its pKi is 6.43.
